Article PMC5572722, “Dimerization in tailoring uptake efficacy of the HSV-1 derived membranotropic peptide gH625” (Scientific Reports, 2017)
Positions of bridges follow the written chain, without caps; N, C: chain ends. Residues, ends and D or L forms follow the SMILES beside them. Chains are numbered I, II in the order given. No end group written: not given here.

Key:
[1] = Peptide aggregation, Thioflavin T (ThT) fluorescence; assay type: physicochemical; settings: ThT 25 μM, 0.1 mM DOPG/Chol 60/40 LUVs, 100 mM NaCl, 10 mM Tris–HCl pH 7.4, 25 °C
Description: Figure 4 Panel A reports the quenching of tryptophan by acrylamide. Stern-Volmer plots of acrylamide quenching of gH625, gH625-H7, gH625-G7 in buffer (closed symbols) and in LUVs composed of DOPG/Chol 60/40 (mol/mol) (open symbols). Peptide concentration is 4 μM. Panel B reports the […] as a function of the peptide/lipid ratio of gH625, gH625-H7, gH625-G7 in buffer (closed symbols) and in 0.1 mM LUVs composed of DOPG/Chol 60/40 (mol/mol) (open symbols).
The three peptides are not aggregated in buffer as evidenced by the fact that the fluorescence remained unaltered after the addition of the peptides (see closed symbols). On the contrary, they all caused a progressive aggregation in LUVs as the fluorescence change increased dramatically.
Peptide aggregation was monitored using ThioflavinT (ThT), which combines rapidly with aggregated peptides producing a new excitation maximum at 450 nm (slit width, 5 nm) and an enhanced emission at 482 nm (slit width, 5 nm)[43]. This experiment was conducted in LUVs (final phospholipid concentration of 0.1 mM) and buffer containing 25 μM ThT in 100 mM NaCl, 10 mM Tris–HCl, pH 7.4. Fluorescence was measured before and after the addition of peptides. In particular, we tested the following peptide concentrations 0.005, 0.01, 0.015, 0.02, 0.03, 0.04, 0.05 and 0.07 mM at 25 °C. Aggregation (A) was determined according to the following equation7 %A=(Ff−F0)/(Fmax−F0)×100 where Ff is the value of fluorescence after peptide addition, F0 the initial fluorescence in the absence of peptide and Fmax is the fluorescence maximum obtained immediately after peptide addition. Kinetic data were obtained at a concentration of 4 μM.

[2] = Circular dichroism: helix content and θ222/θ208 ratio; assay type: physicochemical; settings: CD, peptide 8 μM; for helix content in 20% TFE: room temperature, from MRE at 222 nm; for helix content in 20% TFE / ratio θ222/θ208 in TFE: 20% TFE; for ratio θ222/θ208 in TFE / ratio θ222/θ208 in lipids / ratio θ222/θ208 in buffer: <0.8 monomeric, >1.0 oligomeric state; for helix content in DOPG/Chol / ratio θ222/θ208 in lipids: DOPG/Chol 60/40 LUVs; for helix content in DOPG/Chol: P/L 0.05, from MRE at 222 nm; for ratio θ222/θ208 in lipids: P/L 0.05; for helix content in buffer: sodium phosphate 5 mM pH 7.4, room temperature, from MRE at 222 nm (Chakrabartty et al.)
Description: The circular dichroism (CD) analysis was used to reveal changes of the secondary structure with respect to the parent peptide in different experimental conditions (Figure 7). […] The helix content is probably underscored because oligomerization processes are taking place in this condition. The CD spectra were also obtained in presence of DOPG/Chol.
Figure 7 Circular dichroism spectra of gH625, gH625-H7 and gH625-G7 in buffer (A), 20% TFE (B) and DOPG/Chol 60/40 (mol/mol) LUVs (C). Peptide concentration used is 8 μM in all conditions tested and the peptide/lipid ratio is 0.05 in condition C.
The ratio of the ellipticities at 222 and 208 nm can be utilized to distinguish between monomeric and oligomeric states of helices, [49]; when the ratio θ222/θ208 is lower than 0.8, the peptide is essentially in its monomeric state, and when the ratio exceeds the value of 1.0, it is in its oligomeric state. The data reveal that in presence of TFE and of lipids, gH625 adopts an α-helical conformation with the monomer/oligomer equilibrium shifted toward the oligomeric state with a ratio θ222/θ208 of approximately 0.9 in both conditions, while in buffer the ratio decreases to 0.5 indicating a monomeric state. […] (Figure 7B,C). We repeated the experiment after centrifugation to remove eventual precipitated peptides from solution, however, the aggregates were molecular in size, and centrifugation had no effect on the spectra. The same analysis were performed on gH625-H7. The peptide adopts an α-helical conformation also in buffer, with a ratio θ222/θ208 of approximately 0.7, 0.9 and 1.2 in buffer, TFE and lipids.
CD spectra were recorded in a 1.0 or 0.1 cm quartz cell at room temperature using a Jasco J-715 spectropolarimeter. The spectra are an average of 3 consecutive scans from 260 to 195 nm, recorded with a band width of 3 nm, a time constant of 16 s, and a scan rate of 10 nm/min. Spectra were recorded and corrected for the background contributions by substracting blank samples. Mean residue ellipticities (MRE) were calculated using the expression MRE = Obsd/(lcn), where Obsd is the ellipticity measured in millidegrees, l is the path length of the cell in cm, c is the peptide concentration in mol/l, and n is the number of amino acid residues in the peptide. The peptide concentration was 8 μM both in buffer (sodium phosphate 5 mM pH 7.4) and at different percentages of TFE. Peptide samples in DOPG/Chol (60/40 mol/mol) were prepared using the following protocol[32]: all peptides were first dissolved in TFE; immediately after preparation, the peptide solution was added to an equal volume of a chloroform/methanol solution containing the appropriate lipid concentration; solutions were dried with a nitrogen gas stream and lyophilized overnight; the dry samples were rehydrated with buffer to yield a final peptide concentration of 8 μM with a P/L ratio of 0.05 and extruded. The percentage of helix was calculated from measurements of their mean residue ellipticity at 222 nm[47]. We used [ϑ]222 values of 0 and −40.000(1–2.5/n) deg cm^2 dmol^−1 per amino acid residue for 0% and 100% helicity; n is the number of amino acid residues.

| Molecule | peptide aggregation in LUVs [1] | helix content in 20% TFE [2] | ratio θ222/θ208 in TFE [2] | helix content in DOPG/Chol [2] [%] | ratio θ222/θ208 in lipids [2] | helix content in buffer [2] [%] | ratio θ222/θ208 in buffer [2] |
| --- | --- | --- | --- | --- | --- | --- | --- |
| CC[C@H](C)[C@H](NC(=O)[C@H](CC(C)C)NC(=O)[C@H](C)NC(=O)[C@H](CC(N)=O)NC(=O)[C@H](Cc1ccc(O)cc1)NC(=O)[C@H](Cc1c[nH]cn1)NC(=O)[C@H](C)NC(=O)[C@H](Cc1c[nH]c2ccccc12)NC(=O)[C@H](CCCNC(=N)N)NC(=O)[C@@H](NC(=O)[C@H](CC(C)C)NC(=O)[C@@H](NC(=O)[C@H](CO)NC(=O)[C@H](C)NC(=O)[C@H](CC(C)C)NC(=O)CNC(=O)[C@@H](N)Cc1c[nH]cn1)[C@@H](C)O)[C@@H](C)O)C(=O)N[C@@H](CCCNC(=N)N)C(=O)N[C@@H](C)C(=O)N[C@@H](Cc1ccccc1)C(=O)NCC(=O)NCC(=O)NCC(=O)N[C@@H](CCCCN)C(=O)N[C@@H](CCCCN)C(=O)N[C@@H](CCCCN)C(=O)N[C@@H](CCCCN)C(N)=O [gH625-G7] (H-HGLASTLTRWAHYNALIRAFGGGKKKK-NH2) | oligomerize significantly | 36% | 0.7 | 55 | 1.0 | 7 | – |
| I: HGLASTLTRWAHYNALIRAFGCGKKKK-NH2 / II: HGLASTLTRWAHYNALIRAFGCGKKKK-NH2 (disulfide I:22-II:22) [gH625-H7] | oligomerize significantly | approximately 20% | approximately 0.9 | – | ~1.2 | 8 | approximately 0.7 |
| CC[C@H](C)[C@H](NC(=O)[C@H](CC(C)C)NC(=O)[C@H](C)NC(=O)[C@H](CC(N)=O)NC(=O)[C@H](Cc1ccc(O)cc1)NC(=O)[C@H](Cc1c[nH]cn1)NC(=O)[C@H](C)NC(=O)[C@H](Cc1c[nH]c2ccccc12)NC(=O)[C@H](CCCNC(=N)N)NC(=O)[C@@H](NC(=O)[C@H](CC(C)C)NC(=O)[C@@H](NC(=O)[C@H](CO)NC(=O)[C@H](C)NC(=O)[C@H](CC(C)C)NC(=O)CNC(=O)[C@@H](N)Cc1c[nH]cn1)[C@@H](C)O)[C@@H](C)O)C(=O)N[C@@H](CCCNC(=N)N)C(=O)N[C@@H](C)C(=O)N[C@@H](Cc1ccccc1)C(N)=O [gH625] (H-HGLASTLTRWAHYNALIRAF-NH2) | lower aggregation at low peptide/lipid ratio | 22% | approximately 0.9 | 37 | approximately 0.9 | 5 | 0.5 |
